Laboratory results taken from US12465610B2, “Compounds and methods for the treatment of PKR-associated diseases” (Board of Regents, The University of Texas System, priority 2019, dated 2025).

Legend:
AP-1/2/3 complexes = assay: Western blot of AP-1, AP-2 and AP-3 complex-associated proteins; type: cell-based, human; conditions: H1299 and MDA-MB-231 cells, 72 hours after treatment
Source text: Western blotting was next used to evaluate proteins known to be involved in AP-1/2/3 complexes in lung (H1299) and breast (MDA-MB-231) cancer cells after treatment with Pac 1 or Pac 2. […] AP-1 and AP-2 mediate protein sorting in the endosome, trans-Golgi network, and plasma membrane. […] The impact of Pac 1 was then investigated on lysosome function by staining cells with the acidophilic dye LysoTracker Red.

[1] = tested on: normal cells (HBE, human mammary epithelial cells); assay: SRB cell viability assay, normal cells; type: cell-based; conditions: 72 hours after treatment, HBE and human mammary epithelial cells
Protocol: The effects of Pac 1 and Pac 2 were next examined on PKR protein expression in HeLa cells using Western blot analysis. […] No reduction in normal cell viability was observed after treatment with Pac 1 or Pac 2 (FIGS. 5F and G). […] Because most of the cancer cell lines that were tested were more sensitive to Pac 1 than to Pac 2, Pac 1 was further investigated.
(§1) Cell viability assays: For SRB assays, cells (2-8×10^3/well in 100 μL of culture medium) were seeded in 96-well flat-bottomed plates and treated the next day with compounds at the indicated concentrations. After the indicated treatments, cells were fixed with trichloroacetic acid. The protein was stained with SRB, and the optical density at 570 nm was determined. Relative cell viability was calculated by setting the viability rate of the control cells (exposed only to dimethyl sulfoxide) at 100% and comparing the viability of the treated cells with that of the controls. The experiments were performed at least three times for each cell line. The viability of leukemia cell lines was determined by using a 3-(4,5-dimethylthiazol-2-yl)-2,5-diphenyltetrazolium bromide assay.
(§2) For the SRB assay, cells (2-8×10^3/well in 100 μL of culture medium) were seeded in 96-well flat-bottomed plates and treated the next day with compounds at the indicated concentrations. […] The cells were stained using SRB, and the optical density at 570 nm was determined. […]

[2] = tested on: lysosomes and MVBs/exosomes; assay: Transmission electron microscopy (TEM) of treated cells; type: cell-based, human
HeLaPKRkd cells [3] = assay: Microscopic analysis of morphologic changes; type: cell-based, human
Source text: (§3) Anticancer effects of PKR-targeting compounds depend on PKR expression status: To identify compounds that can target lysosomes in PKR-positive cells or MVBs/exosomes in PKR-negative cells, the 10,000-compound ChemBridge library was screened for compounds with different effects on the growth of HeLa and HeLaPKRkd cells. […] SRB assays were next used to determine cell viability after treatment with Pac 1 or Pac 2.
Identification of PKR-associated compounds and cytotoxicity studies: The library of 10,000 compounds was screened for those with different effects on the growth of HeLa and HeLaPKRkd cells. For this screening, both HeLa and HeLaPKRkd cells were seeded in 96-well plates in parallel and treated with each compound at a final concentration of 5 μg/mL. Cells treated with dimethyl sulfoxide (final concentration, 1%) were used as controls. Treated cells were observed under a microscope to detect morphologic changes, and their viability was determined using SRB assays 2 and 3 days after treatment. The compounds initially observed to have different effects on HeLa and HeLaPKRkd cells were subjected to two confirmatory screenings.

HeLaPKRkd cells [4] = assay: SRB cell viability assay; type: cell-based, human; conditions: 72 hours after treatment
Protocol: as §3, §1
(§4) Identification of PKR-associated compounds and cytotoxicity studies: The library of 10,000 compounds was screened for those with different effects on the growth of HeLa and HeLaPKRkd cells. […] Treated cells were observed under a microscope to detect morphologic changes, and their viability was determined using SRB assays 2 and 3 days after treatment. […]
as §2, with “determined. Relative cell viability was determined by setting the viability of the control cells (exposed only to dimethyl sulfoxide) at 100% and comparing their viability with that of the treated cells.” for “determined.”

HeLa cells = assay: SRB cell viability assay; type: cell-based, human; conditions: 72 hours after treatment
Protocol: as §3, §1, §4
as §2, with “determined. Relative cell viability was determined by setting the viability of the control cells (exposed only to dimethyl sulfoxide) at 100% and comparing their viability with that of the treated cells.” for “determined.”

Toxicity in mice = conditions: 50 mg/kg intravenously daily for 7 days
prion degradation = type: cell-based, human; conditions: HeLa cells, Ad-Prion 48 hours, 1 mM

Row | SMILES | expression of proteins associated with AP-1 (Rab7α, HSC70, AP-1γ) or AP-2 (AP-2α) (AP-1/2/3 complexes) | normal cell viability [1] | lysosomal exocytosis by TEM ([2]; HeLa cells) | lysosomes and MVBs/exosomes by TEM ([2]; HeLaPKRkd cells) | growth of HeLaPKRkd cells by microscopy (HeLaPKRkd cells [3]) | viability of HeLaPKRkd cells (HeLaPKRkd cells [4]) | viability of HeLa cells (HeLa cells) | blood chemistry: aspartate aminotransferase, SGOT, SGPT, alkaline phosphatase, creatine kinase, lactate dehydrogenase levels (Toxicity in mice) | histopathologic examination of major organs (Toxicity in mice; heart, lungs, liver, kidneys, pancreas, spleen) | prion degradation (prion degradation)
1 | Fc1ccc(Nc2nc(N/N=C/c3ccc4c(c3)OCO4)nc(N3CCOCC3)n2)cc1 [Pac 2, 1,3-benzodioxole-5-carbaldehyde [4-[(4-fluorophenyl)amino]-6-(4-morpholinyl)-1,3,5-triazin-2-yl]hydrazine] | No reduction of expression | No reduction | induced lysosomal exocytosis | destroyed MVBs/exosomes | suppressed the growth of HeLaPKRkd cells more effectively than did Pac 1 | suppressed more effectively by Pac 2 | not sensitive | normal | no significant changes in any major organs | –
2 | Cn1cnc(N)c2ncnc1-2 [Pac 3MA, 3-methyladenine] | – | – | – | – | – | – | – | – | – | prevented prion degradation
